Experiments:
Assay type in all cases: in vivo
Oryza sativa = experiment: Paddy herbicidal activity test, chemical damage to transplanted rice; conditions: rice transplanted in 2.0 leaf stage, 30 days
Description: (§1) Rice paddy soil was filled into a 1/10000 are pot followed by the addition of suitable amounts of water and chemical fertilizer, kneading, seeding with Echinochloa crus-galli, Monochoria vaginalis and Scirpus juncoides and maintaining in an irrigated state at a water depth of 3 cm. Wettable powders of Target Compound (I) shown in Table 1 prepared in compliance with the preparation examples were diluted with a suitable amount of water, rice plants in the 2.0 leaf stage were transplanted during 3.5 leaf stage of Echinochloa crus-galli, and treated by dropping in chemical in the prescribed amount per 10 are using a pipette. After treating for 30 days in a glass greenhouse at an average atmospheric temperature of […], the herbicidal efficacy thereof was investigated. Evaluation of herbicidal efficacy was carried out by comparing growth inhibition rate (%) with an untreated group, while evaluation of chemical damage was carried out by comparing growth inhibition rate (%) with the state of a complete eradication group, and were evaluated at 11 levels indicated below. • 0 (exponent): 0% to less than 10% (growth inhibition rate) • 1: 10% to less than 20% • 2: 20% to less than 30% • 3: 30% to less than 40% • 4: 40% to less than 50% • 5: 50% to less than 60% • 6: 60% to less than 70% • 7: 70% to less than 80% • 8: 80% to less than 90% • 9: 90% to less than 100% • 10: 100%

Amaranthus retroflexus [1] = experiment: Weed foliar treatment test (Test 3); conditions: foliar spray at 1.0 to 2.0 leaf stage of Digitaria ciliaris, 3 weeks, 25° C.
Description: (§2) Evaluation of herbicidal efficacy was carried out by comparing growth inhibition rate (%) with an untreated group, while evaluation of chemical damage was carried out by comparing growth inhibition rate (%) with the state of a complete eradication group, and were evaluated at 11 levels indicated below. • 0 (exponent): 0% to less than 10% (growth inhibition rate) • 1: 10% to less than 20% • 2: 20% to less than 30% • 3: 30% to less than 40% • 4: 40% to less than 50% • 5: 50% to less than 60% • 6: 60% to less than 70% • 7: 70% to less than 80% • 8: 80% to less than 90% • 9: 90% to less than 100% • 10: 100% Soil was filled into a 1/6000 are pot followed by seeding with Digitaria ciliaris, Chenopodium album and Amaranthus retroflexus, covering with soil, and cultivating in a glass greenhouse at an average atmospheric temperature of 25° C. Wettable powders of Target Compound (I) shown in Table 1 prepared in compliance with the preparation examples were diluted with water to the prescribed amount of chemical and uniformly sprayed onto the weeds using 150 liters of sprayed water per 10 are when Digitaria ciliaris had grown to the 1.0 to 2.0 leaf stage. After treating for 3 weeks in a glass greenhouse at an average atmospheric temperature of 25° C., the herbicidal efficacy thereof was investigated. Evaluation of herbicidal efficacy was carried out in the same manner as the above-mentioned Test Example 1.

Digitaria ciliaris [2] = experiment: Weed foliar treatment test (Test 3); conditions: foliar spray at 1.0 to 2.0 leaf stage of Digitaria ciliaris, 3 weeks, 25° C.
Description: as §2

Chenopodium album [3] = experiment: Weed foliar treatment test (Test 3); conditions: foliar spray at 1.0 to 2.0 leaf stage of Digitaria ciliaris, 3 weeks, 25° C.
Description: as §2

Amaranthus retroflexus [4] = experiment: Farming soil treatment test; conditions: soil surface spray prior to weed growth, 30 days, 30° C.
Description: (§3) Evaluation of herbicidal efficacy was carried out by comparing growth inhibition rate (%) with an untreated group, while evaluation of chemical damage was carried out by comparing growth inhibition rate (%) with the state of a complete eradication group, and were evaluated at 11 levels indicated below. • 0 (exponent): 0% to less than 10% (growth inhibition rate) • 1: 10% to less than 20% • 2: 20% to less than 30% • 3: 30% to less than 40% • 4: 40% to less than 50% • 5: 50% to less than 60% • 6: 60% to less than 70% • 7: 70% to less than 80% • 8: 80% to less than 90% • 9: 90% to less than 100% • 10: 100% Field soil was filled into a 1/6000 are pot followed by seeding with Digitaria ciliaris, Chenopodium album and Amraranthus retroflexus and covering with soil. Wettable powders of compounds of formula (I) shown in Table 1 prepared in compliance with the preparation examples were diluted with water to the prescribed amount of chemical and uniformly sprayed onto each soil surface layer using 100 liters of sprayed water per 10 are prior to weed growth following seeding. After treating for 30 days in a glass greenhouse at an average atmospheric temperature of 30° C., the herbicidal efficacy thereof was investigated. Evaluation of herbicidal efficacy was carried out in the same manner as the above-mentioned Test Example 1,

Digitaria ciliaris [5] = experiment: Farming soil treatment test; conditions: soil surface spray prior to weed growth, 30 days, 30° C.
Description: as §3

Chenopodium album [6] = experiment: Farming soil treatment test; conditions: soil surface spray prior to weed growth, 30 days, 30° C.
Description: as §3

Digitaria ciliaris [7] = experiment: Weed foliar treatment test (Test 4, higher leaf stage); conditions: 10 g a.i./10a; foliar spray at 4.0 to 5.0 leaf stage of Digitaria ciliaris (plant height 10 cm to 15 cm); 20 days, 25° C.
Description: (§4) Evaluation of herbicidal efficacy was carried out by comparing growth inhibition rate (%) with an untreated group, while evaluation of chemical damage was carried out by comparing growth inhibition rate (%) with the state of a complete eradication group, and were evaluated at 11 levels indicated below. • 0 (exponent): 0% to less than 10% (growth inhibition rate) • 1: 10% to less than 20% • 2: 20% to less than 30% • 3: 30% to less than 40% • 4: 40% to less than 50% • 5: 50% to less than 60% • 6: 60% to less than 70% • 7: 70% to less than 80% • 8: 80% to less than 90% • 9: 90% to less than 100% • 10: 100% Field soil was filled into a 1/4500 are pot followed by seeding with Digitaria ciliaris and Galinsoga parviflora, covering with soil and cultivating in a glass greenhouse at an average atmospheric temperature of 25° C. Wettable powders of Target Compound (I) shown, in Table 1 prepared in compliance with the preparation examples were diluted with water to the prescribed amount of chemical and uniformly sprayed onto the weeds using 100 liters of sprayed water per 10 are when Digitaria ciliaris had grown to the 4.0 to 5.0 leaf stage (plant height: 10 cm to 15 cm). After treating for 20 days in a glass greenhouse at an average atmospheric temperature of 25° C., the herbicidal efficacy thereof was investigated. Evaluation of herbicidal efficacy was carried out in the same manner as the above-mentioned Test Example 1.

Galinsoga parviflora = experiment: as above; conditions: 10 g a.i./10a; foliar spray at 4.0 to 5.0 leaf stage of Digitaria ciliaris; 20 days, 25° C.
Description: as §4

Monochoria vaginalis = experiment: Paddy herbicidal activity test; conditions: irrigated pot, treated at 3.5 leaf stage of Echinochloa crus-galli, 30 days
Description: as §1

Scirpus juncoides = experiment: Paddy herbicidal activity test; conditions: irrigated pot, treated at 3.5 leaf stage of Echinochloa crus-galli, 30 days
Description: as §1

Echinochloa crus-galli = experiment: Paddy herbicidal activity test; conditions: irrigated pot, treated at 3.5 leaf stage of Echinochloa crus-galli, 30 days
Description: as §1

Structure (SMILES)	chemical damage (growth inhibition rate level), Oryza sativa (Oryza sativa; 1 g a.i./10a)	chemical damage (growth inhibition rate level), Oryza sativa (Oryza sativa; 5 g a.i./10a)	herbicidal efficacy (growth inhibition rate level), Amaranthus retroflexus (Amaranthus retroflexus [1]; 5 g a.i./10a)	herbicidal efficacy (growth inhibition rate level), Amaranthus retroflexus (Amaranthus retroflexus [1]; 10 g a.i./10a)	herbicidal efficacy (growth inhibition rate level), Digitaria ciliaris (Digitaria ciliaris [2]; 5 g a.i./10a)	herbicidal efficacy (growth inhibition rate level), Digitaria ciliaris (Digitaria ciliaris [2]; 10 g a.i./10a)	herbicidal efficacy (growth inhibition rate level), Chenopodium album (Chenopodium album [3]; 5 g a.i./10a)	herbicidal efficacy (growth inhibition rate level), Chenopodium album (Chenopodium album [3]; 10 g a.i./10a)	herbicidal efficacy (growth inhibition rate level), Amaranthus retroflexus (Amaranthus retroflexus [4]; 5 g a.i./10a)	herbicidal efficacy (growth inhibition rate level), Amaranthus retroflexus (Amaranthus retroflexus [4]; 10 g a.i./10a)	herbicidal efficacy (growth inhibition rate level), Digitaria ciliaris (Digitaria ciliaris [5]; 5 g a.i./10a)	herbicidal efficacy (growth inhibition rate level), Digitaria ciliaris (Digitaria ciliaris [5]; 10 g a.i./10a)	herbicidal efficacy (growth inhibition rate level), Chenopodium album (Chenopodium album [6]; 5 g a.i./10a)	herbicidal efficacy (growth inhibition rate level), Chenopodium album (Chenopodium album [6]; 10 g a.i./10a)	herbicidal efficacy (growth inhibition rate level), Digitaria ciliaris (Digitaria ciliaris [7])	herbicidal efficacy (growth inhibition rate level), Galinsoga parviflora (Galinsoga parviflora)	herbicidal efficacy (growth inhibition rate level), Monochoria vaginalis (Monochoria vaginalis; 1 g a.i./10a)	herbicidal efficacy (growth inhibition rate level), Monochoria vaginalis (Monochoria vaginalis; 5 g a.i./10a)	herbicidal efficacy (growth inhibition rate level), Scirpus juncoides (Scirpus juncoides; 1 g a.i./10a)	herbicidal efficacy (growth inhibition rate level), Scirpus juncoides (Scirpus juncoides; 5 g a.i./10a)	further results
N#Cc1cnn(-c2nn3c(c2Cl)CCCC3)c1NC(=O)CCCCl [Control Agent 1.37]	2 (2: 20% to less than 30%)	2 (2: 20% to less than 30%)	6 (6: 60% to less than 70%)	7 (7: 70% to less than 80%)	3 (3: 30% to less than 40%)	4 (4: 40% to less than 50%)	4 (4: 40% to less than 50%)	5 (5: 50% to less than 60%)	5 (5: 50% to less than 60%)	6 (6: 60% to less than 70%)	3 (3: 30% to less than 40%)	4 (4: 40% to less than 50%)	4 (4: 40% to less than 50%)	5 (5: 50% to less than 60%)	2 (2: 20% to less than 30%)	4 (4: 40% to less than 50%)	2 (2: 20% to less than 30%)	4 (4: 40% to less than 50%)	1 (1: 10% to less than 20%)	2 (2: 20% to less than 30%)	herbicidal efficacy (growth inhibition rate level), Echinochloa crus-galli (Echinochloa crus-galli; 1 g a.i./10a): 3 (3: 30% to less than 40%); herbicidal efficacy (growth inhibition rate level), Echinochloa crus-galli (Echinochloa crus-galli; 5 g a.i./10a): 3 (3: 30% to less than 40%)
CC(=O)Nc1c([N+](=O)[O-])cnn1-c1nn2c(c1Cl)CCCC2 [Control Agent 2.17]	0 (0 (exponent): 0% to less than 10% (growth inhibition rate))	1 (1: 10% to less than 20%)	6 (6: 60% to less than 70%)	6 (6: 60% to less than 70%)	2 (2: 20% to less than 30%)	2 (2: 20% to less than 30%)	0 (0 (exponent): 0% to less than 10% (growth inhibition rate))	1 (1: 10% to less than 20%)	4 (4: 40% to less than 50%)	5 (5: 50% to less than 60%)	0 (0 (exponent): 0% to less than 10% (growth inhibition rate))	1 (1: 10% to less than 20%)	0 (0 (exponent): 0% to less than 10% (growth inhibition rate))	1 (1: 10% to less than 20%)	0 (0 (exponent): 0% to less than 10% (growth inhibition rate))	5 (5: 50% to less than 60%)	1 (1: 10% to less than 20%)	2 (2: 20% to less than 30%)	0 (0 (exponent): 0% to less than 10% (growth inhibition rate))	1 (1: 10% to less than 20%)	herbicidal efficacy (growth inhibition rate level), Echinochloa crus-galli (Echinochloa crus-galli; 1 g a.i./10a): 1 (1: 10% to less than 20%); herbicidal efficacy (growth inhibition rate level), Echinochloa crus-galli (Echinochloa crus-galli; 5 g a.i./10a): 1 (1: 10% to less than 20%)
